The source of these data is DBAASP.

Values after ≈ are worked out from the molar mass of the structure shown.

What all share (experiment): ≥ marks a high value that may be exact or a test limit, other limits are often not marked, values filed in µg/mL are converted to µM
Test [1] deals with Bacillus subtilis ATCC 6051.
Test [2] has as its system Staphylococcus aureus Newman.
In test [3] the test system is Staphylococcus aureus SA113.
For test [4], the system named is Staphylococcus aureus RF122.
For test [5], the system named is Salmonella enterica subsp. enterica serovar Typhimurium LT2.
The test system of test [6] is Cronobacter sakazakii DPC 6440.
In test [7] the test system is Cronobacter sakazakii ATCC BAA-894.
Test [8] has as its system Klebsiella pneumoniae NCIMB 13218.
The subject of test [9] is Cronobacter muytjensii ATCC 51329.
Test [10] relates to Pseudomonas fluorescens NCIMB 9046.
The subject of test [11] is Escherichia coli NCIMB 11843.
For test [12], the system named is Staphylococcus aureus RN4220.
For test [13], the system named is Staphylococcus aureus NCTC 8325-4.
The test system of test [14] is Cronobacter sakazakii DSM 4485.
Test [15] deals with Escherichia coli JW0013.
The subject of test [16] is Pseudomonas aeruginosa ATCC 27853.

By MIC is commonly meant the least concentration at which growth counts as inhibited. A high value points to a need for much substance. In the case of `CC[C@H](C)[C@H](NC(=O)[C@@H](N)Cc1cnc[nH]1)C(=O)N[C@@H](CCC(N)=O)C(=O)N[C@@H](CCCCN)C(=O)N[C@@H](CCC(=O)O)C(=O)N[C@@H](CC(=O)O)C(=O)N[C@H](C(=O)N1CCC[C@H]1C(=O)N[C@@H](CO)C(=O)N[C@@H](CCC(=O)O)C(=O)N[C@@H](CCCN=C(N)N)C(=O)N[C@@H](Cc1ccc(O)cc1)C(=O)N[C@@H](CC(C)C)C(=O)NCC(=O)N[C@@H](Cc1ccc(O)cc1)C(=O)N[C@@H](CC(C)C)C(=O)N[C@@H](CCC(=O)O)C(=O)N[C@@H](CCC(N)=O)C(=O)N[C@@H](CC(C)C)C(=O)N[C@@H](CC(C)C)C(=O)N[C@@H](CCCN=C(N)N)C(=O)N[C@@H](CC(C)C)C(=O)N[C@@H](CCCCN)C(=O)N[C@@H](CCCCN)C(=O)O)C(C)C` [HIQKEDVPSERYLGYLEQLLRLKK], the MIC in test [1] was at least 186 µM.
Regarding `CC[C@H](C)[C@H](N)C(=O)N[C@@H](CCCN=C(N)N)C(=O)N[C@@H](CCCN=C(N)N)C(=O)N[C@@H](CCC(N)=O)C(=O)NCC(=O)N[C@@H](CC(C)C)C(=O)N1CCC[C@H]1C(=O)N[C@@H](CCC(=O)O)C(=O)O` [IRRQGLPE], the MIC in [2] is at least 1250 µM; in test [3] it was at least 625 µM; in test [4], at least 1250 µM; in test [5], at least 2500 µM; in [6] it was at least 1250 µM; in [7] it was at least 1250 µM. The minimal inhibitory concentration (MIC) is at least 2500 µM in [8]; at least 1250 µM in test [9]; at least 1250 µM in test [10]; at least 2500 µM in test [11]; at least 1250 µM in [12]; at least 312 µM in test [13]. In addition, the MIC in test [14] is at least 1250 µM.
For the compound `CC(C)C[C@H](NC(=O)CNC(=O)[C@H](CCC(N)=O)NC(=O)[C@H](Cc1cnc[nH]1)NC(=O)[C@@H](N)CCCCN)C(=O)N1CCC[C@H]1C(=O)N[C@@H](CCC(N)=O)C(=O)N[C@@H](CCC(=O)O)C(=O)O` [KHQGLPQE], the MIC in test [2] was at least 1250 µM; in test [3], at least 625 µM; in test [4] it was at least 1250 µM; in test [5], at least 1250 µM; in test [6], at least 1250 µM; in test [7], at least 2500 µM. Moreover, the MIC in test [8] is at least 1250 µM; in test [9], at least 2500 µM; in test [10] it was at least 1250 µM; in test [11], at least 1250 µM; in test [12], at least 1250 µM; in test [13], at least 1250 µM. In test [14], this compound yielded an MIC of at least 2500 µM.
In the case of `CC[C@H](C)[C@H](NC(=O)[C@H](CCCN=C(N)N)NC(=O)[C@@H](N)CCCN=C(N)N)C(=O)N[C@@H](CCCN=C(N)N)C(=O)N1CCC[C@H]1C(=O)N[C@@H](CCCN=C(N)N)C(=O)N1CCC[C@H]1C(=O)N1CCC[C@H]1C(=O)N[C@@H](CCCN=C(N)N)C(=O)N[C@@H](CC(C)C)C(=O)N1CCC[C@H]1C(=O)N[C@@H](CCCN=C(N)N)C(=O)N1CCC[C@H]1C(=O)N[C@@H](CCCN=C(N)N)C(=O)N1CCC[C@H]1C(=O)N[C@@H](CCCCN)C(=O)O` [RRIRPRPPRLPRPRPK], the MIC in test [15] amounted to 0.24 µM (≈ 0.492 µg/mL). In other words, the sub-micromolar range.
The same measure, in the same setting: with `CC(C)C[C@H](NC(=O)[C@H](CCCN=C(N)N)NC(=O)[C@@H]1CCCN1C(=O)[C@@H]1CCCN1C(=O)[C@H](CCCN=C(N)N)NC(=O)[C@@H]1CCCN1C(=O)[C@H](CCCN=C(N)N)NC(=O)[C@H](CCCCN)NC(=O)[C@H](CCCN=C(N)N)NC(=O)[C@@H](N)CCCN=C(N)N)C(=O)N1CCC[C@H]1C(=O)N[C@@H](CCCN=C(N)N)C(=O)N1CCC[C@H]1C(=O)N[C@@H](CCCN=C(N)N)C(=O)N1CCC[C@H]1C(=O)N[C@@H](CCCN=C(N)N)C(=O)O` [RRKRPRPPRLPRPRPR] the figure was 0.3 µM (≈ 0.627 µg/mL); with `CC[C@H](C)[C@H](NC(=O)[C@H](CCCN=C(N)N)NC(=O)[C@H](CCCN=C(N)N)NC(=O)[C@@H]1CCCN1C(=O)[C@@H]1CCCN1C(=O)[C@H](CCCN=C(N)N)NC(=O)[C@@H]1CCCN1C(=O)[C@H](CCCN=C(N)N)NC(=O)[C@@H]1CCCN1C(=O)[C@H](CC(C)C)NC(=O)[C@H](Cc1ccc(O)cc1)NC(=O)[C@@H]1CCCN1C(=O)[C@H](CC(N)=O)NC(=O)[C@H](CCCCN)NC(=O)[C@H](CC(=O)O)NC(=O)[C@@H](N)C(C)C)C(=O)N[C@@H](Cc1ccc(O)cc1)C(=O)N[C@@H](CC(N)=O)C(=O)N[C@@H](CCCN=C(N)N)C(N)=O` [VDKNPYLPRPRPPRRIYNR], 1.99 µM (≈ 4.8 µg/mL); with `CC[C@H](C)[C@H](NC(=O)[C@H](CCCN=C(N)N)NC(=O)[C@H](CCCN=C(N)N)NC(=O)[C@@H]1CCCN1C(=O)[C@@H]1CCCN1C(=O)[C@H](CCCN=C(N)N)NC(=O)[C@@H]1CCCN1C(=O)[C@H](CCCN=C(N)N)NC(=O)[C@@H]1CCCN1C(=O)[C@H](CC(C)C)NC(=O)[C@H](Cc1ccc(O)cc1)NC(=O)[C@H](CS)NC(=O)[C@@H]1CCCN1C(=O)[C@H](CCCCN)NC(=O)[C@H](CC(=O)O)NC(=O)[C@@H](N)C(C)C)C(=O)N[C@@H](Cc1ccc(O)cc1)C(=O)N[C@@H](CC(N)=O)C(=O)N[C@@H](CCCN=C(N)N)C(N)=O` [VDKPCYLPRPRPPRRIYNR], 2 µM (≈ 4.8 µg/mL).
Regarding `CC(C)C[C@H](NC(=O)[C@H](C)NC(=O)[C@H](CC(N)=O)NC(=O)[C@H](CCC(=O)O)NC(=O)[C@H](CC(N)=O)NC(=O)[C@H](CC(C)C)NC(=O)[C@@H](N)C(C)C)C(=O)N[C@@H](CCCN=C(N)N)C(=O)O` [VLNENALR], the minimum inhibitory concentration (MIC) was at least 625 µM in test [2]; at least 625 µM in test [3]; at least 1250 µM in [4]; at least 2500 µM in test [5]; at least 625 µM in [6]; at least 2500 µM in [7]. The MIC in test [8] was at least 1250 µM; in test [9], at least 2500 µM; in test [10] it was at least 1250 µM; in [11], at least 1250 µM; in test [12], at least 1250 µM; in test [13], at least 1250 µM. The compound also came in with a minimal inhibitory concentration (MIC) in [14] of at least 2500 µM.
As for `CC(C)C[C@H](NC(=O)[C@H](CC(C)C)NC(=O)[C@H](CC(N)=O)NC(=O)[C@H](CCC(=O)O)NC(=O)[C@H](CC(N)=O)NC(=O)[C@H](CC(C)C)NC(=O)[C@@H](N)C(C)C)C(=O)O` [VLNENLL], the MIC was at least 1250 µM in test [2]; at least 1250 µM in test [3]; at least 1250 µM in test [4]; at least 1250 µM in test [5]; at least 312 µM in test [6]; at least 2500 µM in test [7]. Further, the minimal inhibitory concentration (MIC) is at least 1250 µM in test [8]; at least 2500 µM in test [9]; at least 1250 µM in test [10]; at least 1250 µM in test [11]; at least 1250 µM in test [12]; at least 1250 µM in test [13]. Also, in test [14], the minimal inhibitory concentration (MIC) is at least 2500 µM.
As to `CC(C)C[C@H](NC(=O)[C@H](CC(N)=O)NC(=O)[C@H](CCC(=O)O)NC(=O)[C@H](CC(N)=O)NC(=O)[C@H](CC(C)C)NC(=O)[C@@H](N)C(C)C)C(=O)N[C@@H](CCCN=C(N)N)C(=O)N[C@@H](CCCN=C(N)N)C(=O)O` [VLNENLRR], the MIC in test [2] is at least 1250 µM; in test [3], at least 1250 µM; in test [4], at least 1250 µM; in [5], at least 2500 µM; in [6] it was at least 1250 µM; in test [7], at least 1250 µM. Also, the MIC was at least 1250 µM in test [8]; at least 625 µM in [9]; 32 µM (≈ 32.4 µg/mL) in test [16]; at least 1250 µM in test [10]; at least 2500 µM in test [11]; at least 1250 µM in test [12]. Further, the MIC in test [13] was at least 625 µM; in test [14], at least 1250 µM.
